Experimental data taken from patent US20220409620A1, “REDUCING IMMUNOGENICITY TO PEGLOTICASE” (Horizon Pharma Rheumatology LLC, priority 2016, published 2022).

System: adult patients with uncontrolled gout
Assay: Health Assessment Questionnaire (HAQ-DI, HAQ pain, HAQ health), open-label study
Type: in vivo, human
Design: key to HAQ-Health, Observed, Median / HAQ-Health, Change from Baseline, Median: 0-100 scale; 0 = very well, 100 = very poor health; key to HAQ-DI, Observed, Median / HAQ-DI, Change from Baseline, Median: HAQ-DI scale 0-3; 0 = no difficulty, 3 = unable to do
Conditions: mITT Population
Description: Quality-of-Life Assessment: The HAQ was administered at the Screening and Week −4 or week −6 (prior to the first dose of MTX) Visits during the MTX Run-in Period for the open-label and randomized studies, respectively; prior to pegloticase infusion at the Day 1 and Weeks 14, 24 and 36 Visits or at the Day 1 and weeks 6, 14, 20, 24, 30, 36, and 44 visits during the Pegloticase+IMM Period for the open-label and randomized studies, respectively; at the End of Pegloticase Infusions Visit (if applicable), the Week 52/End of Study/Early Termination Visit and the Post Treatment Periods 3 and 6 Month Follow-up Visits (open-label study). The HAQ-DI is a self-report functional status instrument that can be filled out by a subject in less than 5 minutes and requires 1 minute to score. The index measures disability over the past week by asking a total of 20 questions covering 8 domains of function: dressing and grooming, arising, eating, walking, hygiene, reach, grip, and usual activities. There are at least 2 questions in each domain and the 8 domains represent a comprehensive set of functional activities. The HAQ-DI is calculated by scoring the answer to each question in the HAQ from 0 to 3, with 0 representing the ability to do without any difficulty, and 3 representing inability to do. Any activity that requires assistance from another individual or requires the use of an assistive device raises a 0 or 1 score to a 2. The highest score for each of the 8 domains is summed (range from 0 to 24) and divided by 8 to yield, on a scale with 25 possible values, a Functional Disability Index with a range from 0 to 3. The disability index is based on the number of domains answered and is computed only if the subject completes answers to at least 6 domains. The HAQ pain scale asks subjects to record how much pain they have had in the past week on a scale of 0 to 100, where zero represents “no pain” and 100 represents “severe pain”. The HAQ health scale is a measure of overall health. Subjects are asked to rate how well they are doing on a score of 0 to 100, where zero represents “very well” and 100 represents “very poor” health.

[1] = Early Termination Visit, Methotrexate Baseline
[2] = Early Termination Visit, Pegloticase Baseline
[3] = End of Pegloticase Infusions Visit, Methotrexate Baseline
[4] = End of Pegloticase Infusions Visit, Pegloticase Baseline

## pegloticase
Day 1, Methotrexate Baseline
  HAQ-DI, Change from Baseline, Mean (SD): 0.1 (0.27)
  HAQ-DI, Change from Baseline, Median: 0.0
  HAQ-DI, Observed, Mean (SD): 0.8 (0.77)
  HAQ-DI, Observed, Median: 0.5
  HAQ-Health, Change from Baseline, Mean (SD): −8.8 (38.29)
  HAQ-Health, Change from Baseline, Median: 10.0
  HAQ-Health, Observed, Mean (SD): 37.8 (27.06)
  HAQ-Health, Observed, Median: 25.0
  HAQ-Pain, Change from Baseline, Mean (SD): 2.3 (19.93)
  HAQ-Pain, Change from Baseline, Median: 0.0
  HAQ-Pain, Observed, Mean (SD): 42.5 (22.24)
  HAQ-Pain, Observed, Median: 40.0
[1]
  HAQ-DI, Change from Baseline, Mean (SD): 0.2 (0.90)
  HAQ-DI, Change from Baseline, Median: −0.3
  HAQ-DI, Observed, Mean (SD): 0.7 (0.51)
  HAQ-DI, Observed, Median: 0.6
  HAQ-Health, Change from Baseline, Mean (SD): −0.7 (16.77)
  HAQ-Health, Change from Baseline, Median: 8.0
  HAQ-Health, Observed, Mean (SD): 28.3 (40.72)
  HAQ-Health, Observed, Median: 10.0
  HAQ-Pain, Change from Baseline, Mean (SD): 19.0 (36.51)
  HAQ-Pain, Change from Baseline, Median: 7.0
  HAQ-Pain, Observed, Mean (SD): 46.7 (40.41)
  HAQ-Pain, Observed, Median: 40.0
[2]
  HAQ-DI, Change from Baseline, Mean (SD): 0.2 (0.56)
  HAQ-DI, Change from Baseline, Median: 0.1
  HAQ-DI, Observed, Mean (SD): 0.7 (0.51)
  HAQ-DI, Observed, Median: 0.6
  HAQ-Health, Change from Baseline, Mean (SD): −11.7 (62.52)
  HAQ-Health, Change from Baseline, Median: −10.0
  HAQ-Health, Observed, Mean (SD): 28.3 (40.72)
  HAQ-Health, Observed, Median: 10.0
  HAQ-Pain, Change from Baseline, Mean (SD): 0.0 (45.83)
  HAQ-Pain, Change from Baseline, Median: −10.0
  HAQ-Pain, Observed, Mean (SD): 46.7 (40.41)
  HAQ-Pain, Observed, Median: 40.0
[3]
  HAQ-DI, Change from Baseline, Mean (SD): −0.1 (0.35)
  HAQ-DI, Change from Baseline, Median: −0.1
  HAQ-DI, Observed, Mean (SD): 0.1 (0.18)
  HAQ-DI, Observed, Median: 0.1
  HAQ-Health, Change from Baseline, Mean (SD): −80.0 (0.00)
  HAQ-Health, Change from Baseline, Median: −80.0
  HAQ-Health, Observed, Mean (SD): 0.0 (0.00)
  HAQ-Health, Observed, Median: 0.0
  HAQ-Pain, Change from Baseline, Mean (SD): 2.5 (74.25)
  HAQ-Pain, Change from Baseline, Median: 2.5
  HAQ-Pain, Observed, Mean (SD): 40.0 (56.57)
  HAQ-Pain, Observed, Median: 40.0
[4]
  HAQ-DI, Change from Baseline, Mean (SD): −0.1 (0.35)
  HAQ-DI, Change from Baseline, Median: −0.1
  HAQ-DI, Observed, Mean (SD): 0.1 (0.18)
  HAQ-DI, Observed, Median: 0.1
  HAQ-Health, Change from Baseline, Mean (SD): −45.0 (49.50)
  HAQ-Health, Change from Baseline, Median: −45.0
  HAQ-Health, Observed, Mean (SD): 0.0 (0.00)
  HAQ-Health, Observed, Median: 0.0
  HAQ-Pain, Change from Baseline, Mean (SD): 2.5 (74.25)
  HAQ-Pain, Change from Baseline, Median: 2.5
  HAQ-Pain, Observed, Mean (SD): 40.0 (56.57)
  HAQ-Pain, Observed, Median: 40.0
Week 14, Methotrexate Baseline
  HAQ-DI, Change from Baseline, Mean (SD): −0.2 (0.77)
  HAQ-DI, Change from Baseline, Median: 0.0
  HAQ-DI, Observed, Mean (SD): 0.5 (0.41)
  HAQ-DI, Observed, Median: 0.5
  HAQ-Health, Change from Baseline, Mean (SD): −12.5 (36.79)
  HAQ-Health, Change from Baseline, Median: −5.0
  HAQ-Health, Observed, Mean (SD): 36.6 (33.87)
  HAQ-Health, Observed, Median: 16.5
  HAQ-Pain, Change from Baseline, Mean (SD): −13.9 (30.48)
  HAQ-Pain, Change from Baseline, Median: −12.5
  HAQ-Pain, Observed, Mean (SD): 27.1 (26.25)
  HAQ-Pain, Observed, Median: 15.0
Week 14, Pegloticase Baseline
  HAQ-DI, Change from Baseline, Mean (SD): −0.3 (0.80)
  HAQ-DI, Change from Baseline, Median: 0.0
  HAQ-DI, Observed, Mean (SD): 0.5 (0.41)
  HAQ-DI, Observed, Median: 0.5
  HAQ-Health, Change from Baseline, Mean (SD): −4.3 (43.82)
  HAQ-Health, Change from Baseline, Median: −1.0
